According to US6149904A, “Method for inhibiting tumor cell growth by administering to tumor cells expressing a nucleic acid encoding a connexin and a pro-drug” (The Regents of the University of California, priority 1997, dated 2000):

What was measured:
9L glial tumor cells = assay: GCV therapy after injecting HSV-tk+ PA317 fibroblasts into pre-existing tumors (Example 2); assay type: in vivo, athymic mice; conditions: GCV 25 mg/kg BID 7 days from 24 h after fibroblast injection; tumors weighed 14 days after start; FIG. 4
Description: 5 athymic (immuno-incompetent) mice were injected subcutaneously with 1×10^7 tumor cells known to have either high (9L glial tumor cells) or low (C6 glial tumor cells) levels of gap junction mediated intercellular transport. 1×10^7 HSV-tk^+ fibroblasts (PA317 cells) were injected into the center of tumors that were formed. GCV therapy (25 mg/kg, BID) was commenced 24 hours later and continued for 7 days. 14 days following the initiation of GCV treatment the tumors were removed and weighed.
These findings indicate the importance of gap junction mediated transport for the bystander killing of tumor cells.

[1] = test system: 9L glial tumor cells mixed with PA317 fibroblasts expressing HSV-tk; assay: GCV tumor toxicity, co-injected tumor cells and HSV-tk PA317 fibroblasts (Example 1); assay type: in vivo, athymic BALB/C mice; conditions: GCV 25 mg/kg BID 7 days; tumors removed 14 days after start of GCV; 9L (high coupling) vs C6 (low coupling); FIG. 3
Description: The HSV-tk gene was stably cloned into a PA/317 fibroblasts as described in Mol. Cell. Biol. 6:2895-2902 (1986) and New Eng. J. Med. 232:570-578 (1990). Athymic (immune-incompetent) BALB/C mice were injected subcutaneously with mixtures of: 1) 1×10^7 tumor cells known to have either high (9L glial tumor cells) or low (C6 glial tumor cells) levels of gap junction mediated intercellular transport, and 2) 1×10^7 immortalized mouse fibroblasts (PA317 cells) engineered to express HSV-tk. The mixtures of inoculated cells were allowed to grow into tumors over a period of 7-14 days (the time for detectable tumor formation varied depending on the identity and number of injected cells). The tumor-bearing animals were then treated for 7 days with GCV (25 mg/kg, BID) or with phosphate buffeted saline (PBS). Tumor size was periodically monitored.
14 days following the initiation of GCV treatment the tumors were removed. FIG. 3 summarizes the average weight of tumors following their removal. […] Thus, tumor toxicity was greater in tumors with higher levels of gap junction mediated intercellular transport.

[2] = test system: 9L tumor cells mixed with HSV-tk+ connexin43- fibroblasts; assay: GCV treatment of 9L tumors with HSV-tk+ connexin43- fibroblasts (Example 4); assay type: in vivo, athymic mice
Description: (§1) 5 athymic (immuno-incompetent) mice were injected subcutaneously with mixtures of 1×10^7 9L tumor cells and either immortalized connexin43^- mouse fibroblasts engineered to express HSV-tk (5 mice) or immortalized mouse fibroblasts from normal mice which express connexin 43 and had also been engineered to express HSV-tk (5 mice). The inoculated cells were allowed to grow into tumors. The tumor-bearing animals were treated with GCV (25 mg/kg) for 7 days. Tumor size was monitored and 14 days following the initiation of GCV treatment the tumors were removed. In a parallel experiment, animals injected with a mixture of 1×10^79L tumor cells and with immortalized connexin43^- mouse fibroblasts engineered to express HSV-tk were mock-treated with sham injections of phosphate buffeted saline (PBS) lacking GCV.
Two other groups of 5 animals inoculated with mixtures of 9L cells and HSV-tk^+ fibroblasts derived from cells lacking any connexin43 genes were identically treated.

[3] = test system: 9L tumor cells mixed with HSV-tk+ fibroblasts expressing connexin43; assay: GCV treatment of 9L tumors with HSV-tk+ fibroblasts expressing connexin43 (Example 4); assay type: in vivo, athymic mice
Description: as §1
Of the 5 animals with tumors consisting of 9L cells and HSV-tk^+ fibroblasts expressing connexin43, only 3 animals still had detectable tumors when examined 7 days after the completion of GCV therapy. […] A matched control group of 5 animals which received sham injections of phosphate buffeted saline (PBS) instead of GCV all had tumors 7 days after the completion of this "sham treatment".

SMILES: Nc1nc(O)c2ncn(COC(CO)CO)c2n1 [GCV, Ganciclovir]
- effect of GCV treatment on tumor weight, 9L versus C6 tumors (9L glial tumor cells): greater in 9L cells
- tumor size (average weight of tumors) versus C6 tumors treated with GCV [1]: significantly smaller
- therapeutic effect of GCV administration against tumors ([2]; GCV 25 mg/kg 7 days, fibroblasts with connexin genes deleted, FIG. 6): not effective
- animals with tumors (of 5) ([2]; after 7 days of GCV treatment, 5 animals in group): 5 animals
- average tumor weight ([2]; after 7 days of GCV treatment, group without GCV 5.68 g): 5.43 g
- animals with detectable tumors (of 5) ([3]; 7 days after completion of GCV therapy, 5 animals in group): 3 animals
- average tumor weight ([3]; GCV 25 mg/kg 7 days, 7 days after completion of GCV therapy, PBS sham control 4.35 g): 0.63 g
- therapeutic effect of GCV administration against tumors ([3]; GCV 25 mg/kg 7 days, fibroblasts with normal connexin 43 genes, FIG. 6): highly therapeutic effect
